How the values were obtained:
Test in all cases: cells
COLO-800 = type: functional, cell-based, Homo sapiens; details: Homo sapiens, COLO-800;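 further: growth inhibition of COLO-800 cells, read out with a cell viability assay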
Description: SANGER: Inhibition of human COLO-800 cell growth in a cell viability assay.

COLO-824 = type: functional, cell-based, Homo sapiens; details: Homo sapiens, COLO-824
Description: SANGER: Inhibition of human COLO-824 cell growth in a cell viability assay.

COR-L88 = type: functional, cell-based, Homo sapiens; details: Homo sapiens, COR-L88;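 further: growth inhibition of COR-L88 cells, read out with a cell viability assay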
Description: SANGER: Inhibition of human COR-L88 cell growth in a cell viability assay.

CW-2 = type: functional, cell-based, Homo sapiens; details: Homo sapiens, CW-2;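 further: growth inhibition of CW-2 cells, read out by a cell viability assay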
Description: SANGER: Inhibition of human CW-2 cell growth in a cell viability assay.

DB = type: functional, cell-based, Homo sapiens; details: Homo sapiens, DB
Description: SANGER: Inhibition of human DB cell growth in a cell viability assay.

ES7 = type: functional, cell-based, Homo sapiens; details: Homo sapiens, ES7;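 further: growth inhibition of cultured human ES7 cells, read out as cell viability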
Description: SANGER: Inhibition of human ES7 cell growth in a cell viability assay.

EW-11 = type: functional, cell-based, Homo sapiens; details: Homo sapiens, EW-11;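 further: growth inhibition of human EW-11 cells, measured with a cell viability assay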
Description: SANGER: Inhibition of human EW-11 cell growth in a cell viability assay.

EW-13 = type: functional, cell-based, Homo sapiens; details: Homo sapiens, EW-13; read-out: IC50;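 further: growth inhibition of EW-13 cells, read out with a cell viability assay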
Description: SANGER: Inhibition of human EW-13 cell growth in a cell viability assay.

GI-ME-N = type: functional, cell-based, Homo sapiens; details: Homo sapiens, GI-ME-N;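 further: growth inhibition of human GI-ME-N cells, read out with a cell viability assay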
Description: SANGER: Inhibition of human GI-ME-N cell growth in a cell viability assay.

GOTO = type: functional, cell-based, Homo sapiens; details: Homo sapiens, GOTO;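 further: growth inhibition of GOTO cells, read out by a cell viability assay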
Description: SANGER: Inhibition of human GOTO cell growth in a cell viability assay.

GR-ST = type: functional, cell-based, Homo sapiens; details: Homo sapiens, GR-ST
Description: SANGER: Inhibition of human GR-ST cell growth in a cell viability assay.

HCC2218 = type: functional, cell-based, Homo sapiens; details: Homo sapiens, HCC2218;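 further: cell viability assay read-out, with IC50 given as the concentration that inhibits growth of the cell line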
Description: SANGER: Inhibition of human HCC2218 cell growth in a cell viability assay.

HCE-T = type: functional, cell-based, Homo sapiens; details: Homo sapiens, HCE-T;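 further: cell viability assay read-out, reporting inhibition of HCE-T cell growth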
Description: SANGER: Inhibition of human HCE-T cell growth in a cell viability assay.

HD-MY-Z = type: functional, cell-based, Homo sapiens; details: Homo sapiens, HD-MY-Z;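 further: growth inhibition of HD-MY-Z cells, read out with a cell viability assay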
Description: SANGER: Inhibition of human HD-MY-Z cell growth in a cell viability assay.

HH = type: functional, cell-based, Homo sapiens; details: Homo sapiens, HH
Description: SANGER: Inhibition of human HH cell growth in a cell viability assay.

HT-144 = type: functional, cell-based, Homo sapiens; details: Homo sapiens, HT-144
Description: SANGER: Inhibition of human HT-144 cell growth in a cell viability assay.

K562 = type: functional, cell-based, Homo sapiens; details: Homo sapiens, K562
Description: SANGER: Inhibition of human K-562 cell growth in a cell viability assay.

KM-H2 = type: functional, cell-based, Homo sapiens; details: Homo sapiens, KM-H2;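 further: growth inhibition of KM-H2 cells, read out by a cell viability assay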
Description: SANGER: Inhibition of human KM-H2 cell growth in a cell viability assay.

KNS-42 = type: functional, cell-based; details: Homo sapiens;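 further: growth inhibition of KNS-42 cells, read out with a cell viability assay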
Description: SANGER: Inhibition of human KNS-42 cell growth in a cell viability assay.

KP-N-YS = type: functional, cell-based, Homo sapiens; details: Homo sapiens, KP-N-YS;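 further: cell viability assay measuring inhibition of cell line growth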
Description: SANGER: Inhibition of human KP-N-YS cell growth in a cell viability assay.

LB2241-RCC = type: functional, cell-based, Homo sapiens; details: Homo sapiens, LB2241-RCC;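 further: cell viability assay measuring how strongly the cultured human renal carcinoma line is prevented from growing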
Description: SANGER: Inhibition of human LB2241-RCC cell growth in a cell viability assay.

Lu-65 = type: functional, cell-based, Homo sapiens; details: Homo sapiens, Lu-65;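 further: growth inhibition of Lu-65 cancer cells, read out by a cell viability assay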
Description: SANGER: Inhibition of human LU-65 cell growth in a cell viability assay.

LXF-289 cell line = type: functional, cell-based; details: Homo sapiens
Description: SANGER: Inhibition of human LXF-289 cell growth in a cell viability assay.

MHH-NB-11 = type: functional, cell-based, Homo sapiens; details: Homo sapiens, MHH-NB-11;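 further: growth inhibition of human MHH-NB-11 cells, read out by a cell viability assay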
Description: SANGER: Inhibition of human MHH-NB-11 cell growth in a cell viability assay.

MLMA = type: functional, cell-based, Homo sapiens; details: Homo sapiens, MLMA;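 further: growth inhibition of MLMA cells (human), determined through a cell viability readout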
Description: SANGER: Inhibition of human MLMA cell growth in a cell viability assay.

MMAC-SF = type: functional, cell-based; details: Homo sapiens;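 further: growth inhibition of human MMAC-SF cells, read out with a cell viability assay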
Description: SANGER: Inhibition of human MMAC-SF cell growth in a cell viability assay.

MPP-89 = type: functional, cell-based, Homo sapiens; details: Homo sapiens, MPP-89;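 further: growth inhibition of human MPP-89 cells, read out with a cell viability assay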
Description: SANGER: Inhibition of human MPP-89 cell growth in a cell viability assay.

MSTO-211H = type: functional, cell-based, Homo sapiens; details: Homo sapiens, MSTO-211H
Description: SANGER: Inhibition of human MSTO-211H cell growth in a cell viability assay.

NB5 = type: functional, cell-based, Homo sapiens; details: Homo sapiens, NB5;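 further: growth inhibition of NB5 cells, read out as cell viability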
Description: SANGER: Inhibition of human NB5 cell growth in a cell viability assay.

NCI-H1304 = type: functional, cell-based, Homo sapiens; details: Homo sapiens, NCI-H1304;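 further: growth inhibition of the cancer cell line, measured in a cell viability assay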
Description: SANGER: Inhibition of human NCI-H1304 cell growth in a cell viability assay.

NCI-H1838 = type: functional, cell-based, Homo sapiens; details: Homo sapiens, NCI-H1838;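 further: growth inhibition of NCI-H1838 cells, determined with a cell viability readout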
Description: SANGER: Inhibition of human NCI-H1838 cell growth in a cell viability assay.

NCI-H209 = type: functional, cell-based, Homo sapiens; details: Homo sapiens, NCI-H209;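 further: growth inhibition of human NCI-H209 cells, measured by a cell viability assay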
Description: SANGER: Inhibition of human NCI-H209 cell growth in a cell viability assay.

NCI-H23 = type: functional, cell-based, Homo sapiens; details: Homo sapiens, NCI-H23;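 further: cell viability assay measuring growth inhibition of NCI-H23 cells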
Description: SANGER: Inhibition of human NCI-H23 cell growth in a cell viability assay.

NCI-H446 = type: functional, cell-based, Homo sapiens; details: Homo sapiens, NCI-H446;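 further: growth inhibition of NCI-H446 cells determined by a cell viability assay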
Description: SANGER: Inhibition of human NCI-H446 cell growth in a cell viability assay.

NCI-H747 = type: functional, cell-based, Homo sapiens; details: Homo sapiens, NCI-H747;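 further: growth inhibition of human NCI-H747 cells, read out by a cell viability assay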
Description: SANGER: Inhibition of human NCI-H747 cell growth in a cell viability assay.

NCI-N87 = type: functional, cell-based; details: Homo sapiens;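 further: growth inhibition of human NCI-N87 cells, read out with a cell viability assay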
Description: SANGER: Inhibition of human NCI-N87 cell growth in a cell viability assay.

SNU1 = type: functional, cell-based, Homo sapiens; details: Homo sapiens, SNU1;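 further: growth inhibition of human NCI-SNU-1 cells, measured with a cell viability assay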
Description: SANGER: Inhibition of human NCI-SNU-1 cell growth in a cell viability assay.

SNU-5 = type: functional, cell-based, Homo sapiens; details: Homo sapiens, SNU-5;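 further: cell viability readout used to measure growth inhibition in human NCI-SNU-5 cells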
Description: SANGER: Inhibition of human NCI-SNU-5 cell growth in a cell viability assay.

NH-12 = type: functional, cell-based, Homo sapiens; details: Homo sapiens, NH-12;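 further: growth inhibition of NH-12 cells, read out with a cell viability assay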
Description: SANGER: Inhibition of human NH-12 cell growth in a cell viability assay.

OMC-1 = type: functional, cell-based, Homo sapiens; details: Homo sapiens, OMC-1;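 further: growth inhibition of the OMC-1 cell line, measured by a cell viability assay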
Description: SANGER: Inhibition of human OMC-1 cell growth in a cell viability assay.

OS-RC-2 = type: functional, cell-based, Homo sapiens; details: Homo sapiens, OS-RC-2;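 further: growth inhibition of human OS-RC-2 cells, measured by a cell viability assay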
Description: SANGER: Inhibition of human OS-RC-2 cell growth in a cell viability assay.

RCC10RGB = type: functional, cell-based, Homo sapiens; details: Homo sapiens, RCC10RGB;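 further: growth inhibition of human RCC10RGB cells, read out by a cell viability assay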
Description: SANGER: Inhibition of human RCC10RGB cell growth in a cell viability assay.

SBC-1 = type: functional, cell-based, Homo sapiens; details: Homo sapiens, SBC-1;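 further: cell viability assay measuring growth inhibition of the SBC-1 cell line, IC50 being the concentration that halves growth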
Description: SANGER: Inhibition of human SBC-1 cell growth in a cell viability assay.

SF-268 = type: functional, cell-based, Homo sapiens; details: Homo sapiens, SF-268;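 further: growth inhibition of SF-268 cells determined with a cell viability assay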
Description: SANGER: Inhibition of human SF268 cell growth in a cell viability assay.

SJSA-1 = type: functional, cell-based, Homo sapiens; details: Homo sapiens, SJSA-1;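 further: growth inhibition of human SJSA-1 cells, read out through a cell viability measurement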
Description: SANGER: Inhibition of human SJSA-1 cell growth in a cell viability assay.

SK-MEL-2 = type: functional, cell-based, Homo sapiens; details: Homo sapiens, SK-MEL-2;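 further: growth inhibition of human SK-MEL-2 cells measured with a cell viability assay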
Description: SANGER: Inhibition of human SK-MEL-2 cell growth in a cell viability assay.

SW872 = type: functional, cell-based, Homo sapiens; details: Homo sapiens, SW872;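 further: growth inhibition of SW872 cells, read out by a viability assay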
Description: SANGER: Inhibition of human SW872 cell growth in a cell viability assay.

ALL-PO = type: functional, cell-based, Homo sapiens; details: Homo sapiens, ALL-PO;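 further: growth inhibition of ALL-PO cells, read out by a cell viability assay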
Description: SANGER: Inhibition of human ALL-PO cell growth in a cell viability assay.

Becker = type: functional, cell-based, Homo sapiens; details: Homo sapiens, Becker;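 further: growth inhibition of Becker cells, read out with a cell viability assay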
Description: SANGER: Inhibition of human Becker cell growth in a cell viability assay.

CGTH-W-1 = type: functional, cell-based, Homo sapiens; details: Homo sapiens, CGTH-W-1;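 further: growth inhibition of human CGTH-W-1 cells measured by cell viability assay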
Description: SANGER: Inhibition of human CGTH-W-1 cell growth in a cell viability assay.

Structure (SMILES): OC[C@H](Cc1ccccc1)Nc1nc(Oc2ccc3c(c2)CCC3)nc2c1ncn2Cc1ccc(-c2ccccc2)cc1
- IC50 (COLO-800): > 10200 nM
- IC50 (COLO-824): > 10200 nM
- IC50 (COR-L88): > 10200 nM
- IC50 (CW-2): > 10200 nM
- IC50 (DB): 6680 nM
- IC50 (ES7): > 10200 nM
- IC50 (EW-11): > 10200 nM
- IC50 (EW-13): 413 nM
- IC50 (GI-ME-N): > 10200 nM
- IC50 (GOTO): 5860 nM
- IC50 (GR-ST): 5510 nM
- IC50 (HCC2218): > 10200 nM
- IC50 (HCE-T): > 10200 nM
- IC50 (HD-MY-Z): > 10200 nM
- IC50 (HH): > 10200 nM
- IC50 (HT-144): 8540 nM
- IC50 (K562): > 10200 nM
- IC50 (KM-H2): > 10200 nM
- IC50 (KNS-42): > 10200 nM
- IC50 (KP-N-YS): 7600 nM
- IC50 (LB2241-RCC): > 10200 nM
- IC50 (Lu-65): > 10200 nM
- IC50 (LXF-289 cell line): 7610 nM
- IC50 (MHH-NB-11): > 10200 nM
- IC50 (MLMA): > 10200 nM
- IC50 (MMAC-SF): > 10200 nM
- IC50 (MPP-89): > 10200 nM
- IC50 (MSTO-211H): > 10200 nM
- IC50 (NB5): > 10200 nM
- IC50 (NCI-H1304): > 10200 nM
- IC50 (NCI-H1838): > 10200 nM
- IC50 (NCI-H209): > 10200 nM
- IC50 (NCI-H23): > 10200 nM
- IC50 (NCI-H446): > 10200 nM
- IC50 (NCI-H747): > 10200 nM
- IC50 (NCI-N87): > 10200 nM
- IC50 (SNU1): > 10200 nM
- IC50 (SNU-5): > 10200 nM
- IC50 (NH-12): > 10200 nM
- IC50 (OMC-1): > 10200 nM
- IC50 (OS-RC-2): > 10200 nM
- IC50 (RCC10RGB): > 10200 nM
- IC50 (SBC-1): > 10200 nM
- IC50 (SF-268): > 10200 nM
- IC50 (SJSA-1): 2560 nM
- IC50 (SK-MEL-2): > 10200 nM
- IC50 (SW872): 10200 nM
- IC50 (ALL-PO): > 10200 nM
- IC50 (Becker): > 10200 nM
- IC50 (CGTH-W-1): > 10200 nM

Structure (SMILES): O=C1NC(=O)c2c1c(-c1ccccc1Cl)cc1[nH]c3ccc(O)cc3c21
- IC50 (COLO-800): > 2000 nM
- IC50 (COLO-824): > 2000 nM
- IC50 (COR-L88): 1560 nM
- IC50 (CW-2): > 2000 nM
- IC50 (DB): 1300 nM
- IC50 (ES7): > 2000 nM
- IC50 (EW-11): > 2000 nM
- IC50 (EW-13): > 2000 nM
- IC50 (GI-ME-N): 1530 nM
- IC50 (GOTO): 666 nM
- IC50 (GR-ST): 975 nM
- IC50 (HCC2218): > 2000 nM
- IC50 (HCE-T): > 2000 nM
- IC50 (HH): 1640 nM
- IC50 (HT-144): > 2000 nM
- IC50 (K562): > 2000 nM
- IC50 (KM-H2): > 2000 nM
- IC50 (KNS-42): > 2000 nM
- IC50 (KP-N-YS): > 2000 nM
- IC50 (LB2241-RCC): 394 nM
- IC50 (Lu-65): > 2000 nM
- IC50 (MHH-NB-11): > 2000 nM
- IC50 (MLMA): 541 nM
- IC50 (MMAC-SF): > 2000 nM
- IC50 (MPP-89): > 2000 nM
- IC50 (MSTO-211H): > 2000 nM
- IC50 (NB5): > 2000 nM
- IC50 (NCI-H1304): > 2000 nM
- IC50 (NCI-H1838): > 2000 nM
- IC50 (NCI-H209): 562 nM
- IC50 (NCI-H23): > 2000 nM
- IC50 (NCI-H446): > 2000 nM
- IC50 (NCI-H747): > 2000 nM
- IC50 (NCI-N87): > 2000 nM
- IC50 (SNU1): 898 nM
- IC50 (SNU-5): > 2000 nM
- IC50 (NH-12): > 2000 nM
- IC50 (OMC-1): > 2000 nM
- IC50 (OS-RC-2): > 2000 nM
- IC50 (RCC10RGB): > 2000 nM
- IC50 (SBC-1): > 2000 nM
- IC50 (SF-268): > 2000 nM
- IC50 (SJSA-1): > 2000 nM
- IC50 (SK-MEL-2): > 2000 nM
- IC50 (SW872): > 2000 nM
- IC50 (ALL-PO): > 2000 nM
- IC50 (Becker): > 2000 nM
- IC50 (CGTH-W-1): > 2000 nM

Reference: ChEMBL document CHEMBL1201861, “Genomics of Drug Sensitity in Cancer screening data, Wellcome Trust Sanger Institute”
